Several values for one entry are separate records, joined by “and”; a condition that tells them apart may be missing. Identical values can stand only once.
How the values were obtained:
Type in all cases: physicochemical
[1] = Stock solution stability at approximately 4° C. (old vs new stock peak areas); details: for Stock solution stability, RE % (to New) of old stock peak area: approximately 4° C.
Method: (§1) The following LC-MS/MS conditions were applied for the analysis of underivatized sodium 2,2-dimethylbutyrate and DMV for stock solution stability analysis (2 to 3.5 month), and system suitability associated with these analyses: The following samples were also analyzed either in conjunction with one of the precision and accuracy runs or in one of the additional validation runs. Samples from six lots of control human plasma for specificity. Samples from six lots of control human plasma fortified with internal standard for specificity. Two concentration levels of unextracted QC-samples in triplicate (solvent standards) were analyzed for the evaluation of the recovery of sodium 2,2-dimethylbutyrate and DMV in human plasma. Two levels of QC samples (Low QC and High QC in triplicate) were subjected to three freeze/thaw cycles at approximately −70° C. prior to extraction to evaluate freeze/thaw stability. Two levels of QC samples (Low QC and High QC in triplicate) were placed on the bench top for approximately 17 hours prior to extraction for the evaluation of the bench top stability. Triplicate low QC samples and triplicate high QC samples were stored for one month and three months in a freezer at approximately −70° C., and then extracted and analyzed to evaluate long term stability in human plasma. Two levels of extracted QC samples (Low QC and High QC) were re-analyzed after approximately 71 hours in the autosampler at room temperature to evaluate the extract autosampler stability. Two levels of extracted QC samples (Low QC and High QC) were re-analyzed after approximately 8 hours in the freezer at approximately −20° C. to evaluate the extract freeze stability. Three aliquots of a dilution QC sample diluted 10-fold. Triplicate dilutions of the old stock solution (stored at approximately 4° C.) and new stock solutions prepared at intervals of two weeks and one month. Statistical calculations in the report tables were calculated from unrounded concentration values taken directly from the raw data. The concentration values were rounded for display purposes. Fresh stock solutions of sodium 2,2-dimethylbutyrate were prepared at intervals of two weeks and 1, 2, 3 and 3.5 months after the initial standard preparation. Similarly, the stability intervals for DMV were two weeks and 1, 2 and 3 months. The initial (or old) stock solutions and the fresh stock solutions were diluted into the calibration standard range and analyzed. The peak areas for the fresh (new) and old standard solutions were compared. Beginning with the 2-month stability analysis, sodium 2,2-dimethylbutyrate and DMV stock solutions were analyzed underivatized. This was done since the peak areas of both sodium 2,2-dimethylbutyrate and DMV varied among replicate derivatized preparations. Analyzing the standard solutions underivatized was a simpler procedure which gave more accurate and precise results

[2] = Freeze/thaw stability in human urine; details: stored at −70° C. and thawed, repeated twice, 0.3, 19 and 38 μg/ml
Method: (§2) The applicability of the testing methodology to analyze samples stored under different conditions was analyzed. First, to assess short-term stability of DMB in human urine, samples at 0.3, 19 and 38 μg/ml, 92.3% of DMB were maintained unextracted at room temperature and at bench-top light levels for six hours. […] Second, to assess freeze/thaw stability of DMB in human urine, samples at 0.3, 19 and 38 μg/ml, 92.3% of DMB were stored at −70° C. and thawed. This process was repeated twice and samples after each freezing were analyzed for DMB as described. For each concentration and each freezing/thawing sample, the % CV was no more than 15%.

[3] = Freeze/thaw cycle stability in human plasma; details: three freeze/thaw cycles at approximately −70° C.
Method: as §1, with “The” for “The following LC-MS/MS conditions were applied for the analysis of underivatized sodium 2,2-dimethylbutyrate and DMV for stock solution stability analysis (2 to 3.5 month), and system suitability associated with these analyses: The”, “purposes.” for “purposes. Fresh stock solutions of sodium 2,2-dimethylbutyrate were prepared at intervals of two weeks and 1, 2, 3 and 3.5 months after the initial standard preparation. Similarly, the stability intervals for DMV were two weeks and 1, 2 and 3 months. The initial (or old) stock solutions and the fresh stock solutions were diluted into the calibration standard range and analyzed. The peak areas for the fresh (new) and old standard solutions were compared. Beginning with the 2-month stability analysis, sodium 2,2-dimethylbutyrate and DMV stock solutions were analyzed underivatized. This was done since the peak areas of both sodium 2,2-dimethylbutyrate and DMV varied among replicate derivatized preparations. Analyzing the standard solutions underivatized was a simpler procedure which gave more accurate and precise results”
The stability of sodium 2,2-dimethylbutyrate in human plasma was evaluated at approximately −70° C. for three cycles using QC-Low and QC-High samples in triplicate. The freeze time was at least 12 to 24 hours, with a minimum thaw time of one hour. The CV % values for the QC-Low and QC-High stability samples are 3.3% and 9.8%, respectively. To calculate the RE %, the measured mean concentration was compared to the nominal concentration. The RE % values for the QC-Low and QC-High stability samples are 2.3% and −5.5%, respectively.

[4] = Short-term stability in human urine at room temperature; details: unextracted, bench-top light, six hours, 0.3, 19 and 38 μg/ml
Method: as §2

Stock solution stability, RE % (to New) of old stock peak area ([1]; 1 Month Interval): 10.3% | Stock solution stability, RE % (to New) of old stock peak area ([1]; 2 Month Interval, underivatized): 2.2% | Stock solution stability, RE % (to New) of old stock peak area ([1]; 2 Week Interval): −8.6% | Stock solution stability, RE % (to New) of old stock peak area ([1]; 3 Month Interval, underivatized): 1.6% | Stock solution stability, RE % (to New) of old stock peak area ([1]; ~3.5 Month Interval, underivatized): −2.2% | Time stock solutions are stable ([1]; stock solution in acetonitrile/water stored in a refrigerator at approximately 4° C.): at least 3.5 months | % CV after freeze/thaw [2]: no more than 15% | Stability after freeze/thaw cycles [3]: stable | Freeze/thaw cycle stability, Mean concentration ([3]; QC-High, nominal 40.0 μg/mL): 37.8 µg/mL | Freeze/thaw cycle stability, RE % (mean vs nominal) ([3]; QC-High, nominal 40.0 μg/mL): −5.5% | Freeze/thaw cycle stability, concentration found (replicate) ([3]; QC-High, nominal 40.0 μg/mL): 41.9 µg/mL and 36.8 µg/mL and 34.7 µg/mL | Freeze/thaw cycle stability, Mean concentration ([3]; QC-Low, nominal 0.60 μg/mL): 0.614 µg/mL | Freeze/thaw cycle stability, RE % (mean vs nominal) ([3]; QC-Low, nominal 0.60 μg/mL): 2.3% | Short-term stability in human urine [4]: stable
Structure (SMILES): CCC(C)(C)C(=O)[O-].[Na+] [Sodium 2,2-Dimethylbutyrate]
Freeze/thaw cycle stability, concentration found (replicate) ([3]; QC-Low, nominal 0.60 μg/mL): 0.615 µg/mL and 0.593 µg/mL and 0.633 µg/mL
